# Molecular target: T1, P2X7 receptor (Homo sapiens, UniProt Q99572)
# T1 construct: host or cells: SH-SY5Y
# T1 sequence (Q99572 1-595): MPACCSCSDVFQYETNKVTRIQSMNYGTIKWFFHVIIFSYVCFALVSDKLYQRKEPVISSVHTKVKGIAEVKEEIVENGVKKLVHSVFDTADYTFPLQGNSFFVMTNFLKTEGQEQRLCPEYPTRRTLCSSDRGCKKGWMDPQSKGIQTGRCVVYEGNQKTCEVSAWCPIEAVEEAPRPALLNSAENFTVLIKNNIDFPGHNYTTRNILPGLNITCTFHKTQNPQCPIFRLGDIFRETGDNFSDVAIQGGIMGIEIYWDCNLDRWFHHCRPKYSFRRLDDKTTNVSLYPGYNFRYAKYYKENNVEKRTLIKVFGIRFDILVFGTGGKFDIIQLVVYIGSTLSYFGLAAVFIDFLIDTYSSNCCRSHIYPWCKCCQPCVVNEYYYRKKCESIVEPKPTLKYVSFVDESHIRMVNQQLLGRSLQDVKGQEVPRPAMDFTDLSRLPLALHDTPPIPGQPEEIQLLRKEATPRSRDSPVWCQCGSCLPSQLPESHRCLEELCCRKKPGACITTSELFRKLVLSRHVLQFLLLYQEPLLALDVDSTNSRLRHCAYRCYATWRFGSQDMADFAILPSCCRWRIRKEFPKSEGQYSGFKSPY
# Experiment: High throughput P2X7 calcium mobilization assay (Example 4A)
# Type: cell-based
# Conditions: SH-SY5Y cells; 50% decrease in fluorescence response of cells exposed to 80 μM BzATP; flag after the MS data in Examples 1-2
# Method: A. High Throughput Assay of P2X7 Receptors
# SH-SY5Y cells, ATCC Number CRL-2266, (American Type Culture Collection, Manassas, Va.) are cultured under DMEM/High medium supplemented with 10% FBS, and 10 mM HEPES (Invitrogen Corp., Carlsbad, Calif.) in 5% CO2 and at 37° C. One day prior to the experiment, cells are plated at a density of 100,000 cells/well in a 96 well black/clear TC plate (Corning® Costar®, Sigma-Aldrich Co., St. Louis, Mo.). At the beginning of the experiment, the culture medium is removed and cells are incubated with 50 μL of 2.3 μM Fluo-4 AM dye (Invitrogen Corp.) in the assay solution (5 mM KCl, 9.6 mM NaH2PO4.H2O, 25 mM HEPES, 280 mM sucrose, 5 mM glucose, and 0.5 mM CaCl2; pH is adjusted to 7.4 with NaOH) for an hour at 37° C. After one hour dye incubation, wells are rinsed once with 50 μL assay solution, and are then incubated for an hour at room temperature with 100 μL assay solution containing the test compound. The final concentration of test compound generally ranges from 1 to 2500 nM; for positive control cells, no test compound is added. After the one hour incubation, plates are transferred to a FLIPR^TETRA instrument (Molecular Devices, Sunnyvale, Calif.) for calcium mobilization analysis.
# For determination of antagonist activity, 50 μL, of P2X7 agonist (2′(3)-O-(4-benzoyl-benzoyl)adenosine 5′-triphosephate (BzATP; Sigma-Aldrich) in the assay solution is transferred using the FLIPR into the plate, such that the final agonist concentration is 80 μM (about EC50). In negative control cells, 50 μL of assay solution without agonist is added at this stage. The peak fluorescence signal over a 2 minute period is then measured.
# First, the average maximum relative fluorescent unit (RFU) response from the negative control wells (no agonist) is subtracted from the maximum response detected for each of the other experimental wells. Second, average maximum RFU response is calculated for the positive control wells (agonist wells).
row,IC50,Structure (SMILES)
1,≤ 2000 nM,"Nc1nc(-n2cc(C(=O)NCC3(c4cccnc4)CCCCC3)c(C(F)(F)F)n2)ncc1F [Compound 2, 1-(4-Amino-5-fluoropyrimidin-2-yl)-N-((1-(pyridin-3-yl)cyclohexyl)methyl)-3-(trifluoromethyl)-1H-pyrazole-4-carboxamide]"
2,≤ 2000 nM,"O=C(NCC12CC3CC(CC(C3)C1)C2)c1cn(-c2ncccn2)nc1Cl [Compound 7, N-(Adamantan-1-ylmethyl)-3-chloro-1-pyrimidin-2-yl-1H-pyrazole-4-carboxamide]"
3,≤ 2000 nM,"CC(C)CC(CNC(=O)c1cn(-c2ncccn2)nc1Cl)c1ccc(C(F)(F)F)cc1 (centres unmarked) [Compound 9, 3-Chloro-N-{4-methyl-2-[4-(trifluoromethyl)phenyl]pentyl}-1-pyrimidin-2-yl-1H-pyrazole-4-carboxamide]"
4,≤ 2000 nM,"O=C(NCC1(c2ccc(C(F)(F)F)cc2)CCCCC1)c1cn(-c2ncccn2)nc1Cl [Compound 10, 3-Chloro-1-pyrimidin-2-yl-N-({1-[4-(trifluoromethyl)phenyl]cyclohexyl}methyl)-1H-pyrazole-4-carboxamide]"
5,≤ 2000 nM,"O=C(NCC1(c2cccnc2)CCCCC1)c1cn(-c2ncccn2)nc1Cl [Compound 11, 3-Chloro-N-[(1-pyridin-3-ylcyclohexyl)methyl]-1-pyrimidin-2-yl-1H-pyrazole-4-carboxamide]"
6,≤ 2000 nM,"Cc1ccc(C2(CNC(=O)c3cn(-c4ncccn4)nc3Cl)CCCCC2)cn1 [Compound 12, 3-Chloro-N-{[1-(6-methylpyridin-3-yl)cyclohexyl]methyl}-1-pyrimidin-2-yl-1H-pyrazole-4-carboxamide]"
7,≤ 2000 nM,"O=C(NCC1(c2cccnc2)CCCCC1)c1cn(-c2nccn3ccnc23)nc1C(F)(F)F [Compound 14, 1-Imidazo[1,2-a]pyrazin-8-yl-3-trifluoromethyl-1H-pyrazole-4-carboxylic acid (1-pyridin-3-yl-cyclohexylmethyl)-amide]"
8,≤ 2000 nM,"Cn1nc(-c2ccccc2)cc1C(=O)NCC1(c2cccnc2)CCCCC1 [Compound 19, 1-Methyl-3-phenyl-N-[(1-pyridin-3-ylcyclohexyl)methyl]-1H-pyrazole-5-carboxamide]"
9,≤ 2000 nM,"Cc1ccc(C2(CNC(=O)c3cc(-c4ccccc4)nn3C)CCCCC2)cn1 [Compound 20, 1-Methyl-3-phenyl-N-{[1-(methylpyridin-3-yl)cyclohexyl]methyl}-1H-pyrazole-5-carboxamide]"
10,≤ 2000 nM,"Cn1nc(-c2ccccc2)cc1C(=O)NCC1(c2ccc(Cl)cc2)CCCCC1 [Compound 21, 1-Methyl-3-phenyl-N-[1-(4-chlorophenyl)cyclohexyl]methyl-1H-pyrazole-5-carboxamide]"
11,≤ 2000 nM,"O=C(NCC(c1ccc(Cl)cc1)N1CCCCC1)c1sc(-c2ncccn2)nc1C(F)(F)F (centres unmarked) [Compound 23, N-[2-(4-chlorophenyl)-2-piperidin-1-ylethyl]-2-pyrimidin-2-yl-4-(trifluoromethyl)-1,3-thiazole-5-carboxamide]"
12,≤ 2000 nM,"CN(C)[C@@H]1CCN(c2nc(C(F)(F)F)c(C(=O)NCC3(c4cccnc4)CCCCC3)s2)C1 [Compound 27, 2-((R)-3-Dimethylamino-pyrrolidin-1-yl)-4-trifluoromethyl-thiazole-5-carboxylic acid (1-pyridin-3-yl-cyclohexylmethyl)-amide]"
13,≤ 2000 nM,"COc1ccc(-c2nc(C(F)(F)F)c(C(=O)NCC3(c4cccnc4)CCCCC3)s2)cn1 [Compound 28, 2-(6-methoxy-pyridin-3-yl)-4-trifluoromethyl-thiazole-5-carboxylic acid (1-pyridin-3-yl-cyclohexylmethyl)-amide]"
14,≤ 2000 nM,"Cc1nc(-c2cccnc2)sc1C(=O)NCC1(c2ccc(Cl)cc2)CCCCC1 [Compound 29, N-{[1-(4-Chlorophenyl)cyclohexyl]methyl}-4-methyl-2-pyridin-3-yl-1,3-thiazole-5-carboxamide]"

# The next lines start with the compound.
row,Structure (SMILES),IC50
1,Cc1cnc(-n2cc(C(=O)NCC34CC5CC(CC(C5)C3)C4)c(C)n2)nc1C#N [1-(4-Cyano-5-methyl-pyrimidin-2-yl)-3-methyl-1H-pyrazole-4-carboxylic acid (adamantan-1-ylmethyl)-amide],≤ 2000 nM
2,"Nc1nc(-n2cc(C(=O)NCC34CC5CC(CC(C5)C3)C4)c(C(F)(F)F)n2)ncc1F [Compound 1, N-(Adamantan-1-ylmethyl)-1-(4-amino-5-fluoropyrimidin-2-yl)-3-(trifluoromethyl)-1H-pyrazole-4-carboxamide]",≤ 2000 nM
3,"O=C(NCC12CC3CC(CC(C3)C1)C2)c1cn(-c2ncc(F)cn2)nc1C(F)F [Compound 3, 3-(Difluoromethyl)-1-(5-fluoro-pyrimidin-2-yl)-1H-pyrazole-4-carboxylic acid (adamantan-1-ylmethyl)-amide]",≤ 2000 nM
4,"Cc1cnc(-n2cc(C(=O)NCC34CC5CC(CC(C5)C3)C4)c(C)n2)nc1C(=O)N1CCOCC1 [Compound 4, N-(Adamantan-1-ylmethyl)-3-methyl-1-[5-methyl-4-(morpholin-4-ylcarbonyl)pyrimidin-2-yl]-1H-pyrazole-4-carboxamide]",≤ 2000 nM
5,"COc1nn(-c2ncccn2)cc1C(=O)NCC12CC3CC(CC(C3)C1)C2 [Compound 5, N-(Adamantan-1-ylmethyl)-3-methoxy-1-pyrimidin-2-yl-1H-pyrazole-4-carboxamide]",≤ 2000 nM
6,"Nc1nn(-c2ncccn2)cc1C(=O)NCC12CC3CC(CC(C3)C1)C2 [Compound 6, N-(Adamantan-1-ylmethyl)-3-amino-1-pyrimidin-2-yl-1H-pyrazole-4-carboxamide]",≤ 2000 nM
7,"O=C(NCC12CC3CC(CC(C3)C1)C2)c1cnn(-c2ncccn2)c1Cl [Compound 8, N-(Adamantan-1-ylmethyl)-5-chloro-1-pyridimin-2-yl-1H-pyrazole-4-carboxamide]",≤ 2000 nM
8,"O=C(CC12CC3CC(CC(C3)C1)C2)Nc1cn(-c2ncccn2)nc1C(F)(F)F [Compound 15, 2-Adamantan-1-yl-N-(1-pyrimidin-2-yl-3-trifluoromethyl-1H-pyrazol-4-yl)-acetamide]",≤ 2000 nM
9,"Cc1nn(C)c(Cc2ccccc2)c1C(=O)NCC12CC3CC(CC(C3)C1)C2 [Compound 16, 5-Benzyl-1,3-dimethyl-1H-pyrazole-4-carboxylic acid (adamantan-1-ylmethyl)-amide]",≤ 2000 nM
10,"O=C(NCC12CC3CC(CC(C3)C1)C2)c1ccnn1Cc1ccccc1 [Compound 17, N-(Adamantan-1-ylmethyl)-1-benzyl-1H-pyrazole-5-carboxamide]",≤ 2000 nM
11,"CC(C)CC(CNC(=O)c1sc(-c2ncccn2)nc1C(F)(F)F)c1ccc(Cl)cc1 (centres unmarked) [Compound 22, 4-trifluoromethyl-2-pyrimidin-2-yl-thiazole-5-carboxylic acid[2-(4-chloro-phenyl)-4-methyl-pentyl]-amide]",≤ 2000 nM
12,"CN1CCN(C2(CNC(=O)c3sc(-c4ncccn4)nc3C(F)(F)F)CCCCCC2)CC1 [Compound 24, N-{[1-(4-methylpiperazin-1-yl)cycloheptyl]methyl}-2-pyrimidin-2-yl-4-(trifluoromethyl)-1,3-thiazole-5-carboxamide]",≤ 2000 nM
13,"O=C(NCC1(c2cccnc2)CCCCC1)c1sc(N2CCCCS2(=O)=O)nc1C(F)(F)F [Compound 26, 2-(1,1-Dioxido-1,2-thiazinan-2-yl)-N-[(1-pyridin-3-ylcyclohexyl)methyl]-4-(trifluoromethyl)-1,3-thiazole-5-carboxamide]",≤ 2000 nM
14,Cc1nc(-c2cccnc2)sc1C(=O)NCC(CC(C)C)c1ccc(C(F)(F)F)cc1 (centres unmarked) [Compound 30],≤ 2000 nM
15,"Cc1nc(-c2cccnc2)sc1C(=O)NCC(CC(C)C)c1ccc(Cl)cc1 (centres unmarked) [Compound 31, N-[2-(4-Chlorophenyl)-4-methylpentyl}-4-methyl-2-pyridin-3-yl-1,3-thiazole-5-carboxamide]",≤ 2000 nM
